The values below come from patent US20100130737A1, “Regulating Agent of GPR34 Receptor Function” (TAKEDA PHARMACEUTICAL COMPANY LIMITED, priority 2005, published 2010).

One data set deals with human GPR34 (Homo sapiens, UniProt Q9UPC5). Nature of the data set: Human GPR34 antagonist activity indicated by changes in intracellular calcium concentration (FLIPR). Further details: expressed in transfected cells; host or cells: CHO cells (human GPR34CHO line) stably transfected with pCR3.1 human lung Gα16. The conditions noted are these: CHO cells expressing human GPR34/Gα16, against 2 μM lysoPS final concentration, Fluo-3AM. It counts as cell-based. On the procedure:
CHO cells expressing human GPR34/Gα were diluted to 3×10^4/100 μl in cell culture medium [nucleic acid-free Minimum Essential Alpha Medium (Invitrogen) containing 10% dialyzed fetal bovine serum (Invitrogen) 0.5 mg/ml Geneticin (Invitrogen), penicillin and streptomycin (Invitrogen)], dispensed 100 μl per well into a Black walled 96-well plate (Costar), and cultured overnight in a CO2 incubator. Changes in intracellular calcium concentration were measured with a FLIPR (Molecular Device) by the methods described below.
50 μg of Fluo-3AM (Dojindo) was dissolved in 21 μl of DMSO (Dojindo), an equal amount of 20% pluronic acid (Molecular Probes) was added and mixed, and this was added to 10.6 ml of assay buffer [prepared by adding 20 ml of 1 M HEPES (pH 7.4, Dojindo) to HBSS (Invitrogen), and then adding 10 ml of a solution obtained by dissolving 710 mg of Probenecid (Sigma) in 5 ml of 1 N NaOH and then adding and mixing 5 ml of the HBSS/HEPES solution)] with 105 μl of fetal bovine serum added thereto to prepare a fluorescent dye solution. The medium was removed from the cell plate, 100 μl per well of the fluorescent dye solution was immediately poured in, and the cells were cultured for 1 hour in a CO2 incubator to incorporate the fluorescent dye into the cells. After culture, the cells were washed with the aforementioned assay buffer. The compound was dissolved in DMSO (Wako Pure Chemical), diluted with DMSO as necessary, added to the aforementioned assay buffer to the target concentration and poured into the plate. To measure antagonist activity, 8 μM lysophosphatidyl serine (lysoPS, Alexis) solution (2 μM final concentration during reaction) was poured into the plate, which was set in the FLIPR. Following these preliminaries, the agonist effect was measured in the FLIPR by measuring changes in intracellular calcium concentration up to 180 seconds after addition of the sample, and after 200 seconds lysoPS was added and the antagonist effect was measured. In the case of the agonist effect, the EC50 value of the added compound was calculated from the dose reaction curve using changes in fluorescent strength from 0 to 180 seconds after the start of the reaction. In the case of the antagonist effect, the IC50 was calculated from the dose reaction curve using changes in maximum fluorescent strength after 200 to 380 seconds of reaction time. The data was analyzed using “GraphPad PRISM4”.
Background: A change in cytosolic calcium serves as a functional read-out for many receptors and channels.

pIC50: −log10 of the molar value.

Sequence of human GPR34 (Q9UPC5 whole entry): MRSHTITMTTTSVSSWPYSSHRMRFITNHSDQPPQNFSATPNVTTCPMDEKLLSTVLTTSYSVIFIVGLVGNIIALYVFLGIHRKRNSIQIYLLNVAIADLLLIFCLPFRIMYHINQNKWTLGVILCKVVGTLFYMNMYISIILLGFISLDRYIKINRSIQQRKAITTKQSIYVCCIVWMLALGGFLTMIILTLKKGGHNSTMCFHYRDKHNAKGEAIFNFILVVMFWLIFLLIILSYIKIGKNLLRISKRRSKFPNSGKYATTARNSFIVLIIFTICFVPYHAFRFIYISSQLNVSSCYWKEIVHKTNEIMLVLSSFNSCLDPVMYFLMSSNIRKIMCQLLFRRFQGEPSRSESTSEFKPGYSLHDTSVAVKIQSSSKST

With `O=C(N[C@@H](Cc1ccc(OCc2ccccc2)cc1)C(=O)O)c1cc2ccc(-c3ccc(Cl)cc3)cc2s1` [Example C122, O-Benzyl-N-{[6-(4-chlorophenyl)-1-benzothiophene-2-yl]carbonyl}tyrosine], the melting point lay in the range of 237 to 239 °C. The negative logarithm of the IC50 (pIC50) at human GPR34 is at least 6.00. `O=C(N[C@@H](Cc1ccc(OCc2ccccc2)cc1)C(=O)O)c1cc2cc(-c3ccc(Cl)cc3)ccc2s1` [Example C123, O-Benzyl-N-{[5-(4-chlorophenyl)-1-benzothiophene-2-yl]carbonyl}tyrosine] showed a melting point of 206 to 207 °C. Moreover, the pIC50 on human GPR34 is at least 6.00.

The molecule `O=C(N[C@@H](Cc1ccc(OCc2ccccc2)cc1)C(=O)O)c1cc2cc(C#Cc3ccccc3)ccc2s1` [Example C139, O-Benzyl-N-{[5-(phenylethynyl)-1-benzothiophene-2-yl]carbonyl}tyrosine] registered a melting point of 198 to 199 °C. The negative logarithm of the IC50 (pIC50) on human GPR34 was at least 6.00. Regarding `Cc1c(C(=O)N[C@@H](Cc2ccc(OCc3ccccc3)cc2)C(=O)O)oc2ccc(-c3ccc(Cl)cc3)cc12` [Example C142, O-Benzyl-N-{[5-(4-chlorophenyl)-3-methyl1-benzofuran-2-yl]carbonyl}tyrosine], the melting point lay in the range of 209 to 210 °C. The negative logarithm of the IC50 (pIC50) at human GPR34 was at least 6.00. As to `O=C(N[C@@H](Cc1ccc(OCc2ccccc2)cc1)C(=O)O)c1cc2ccc(-c3ccc(Cl)cc3)cc2o1` [Example C143, O-Benzyl-N-{[6-(4-chlorophenyl)-1-benzofuran-2-yl]carbonyl}tyrosine], the melting point was 170 to 171 °C. At human GPR34, the negative logarithm of the IC50 (pIC50) is at least 6.00. Turning to `O=C(N[C@@H](Cc1ccc(OCc2ccccc2)cc1)C(=O)O)c1nc2ccc(/C=C/c3ccccc3)cc2[nH]1` [Example C144, O-Benzyl-N-({6-[(E)-2-phenylethenyl]-1H-benzimidazol-2-yl)carbonyl)tyrosine], the melting point was 247 °C (dec.). Besides, at human GPR34, the negative-log IC50 (pIC50) was at least 6.00.

`O=C(N[C@@H](Cc1ccc(OCc2ccccc2)cc1)C(=O)O)C1=Cc2ccc(-c3ccc(Cl)cc3)cc2SC1` [Example C145, O-Benzyl-N-{[7-(4-chlorophenyl)-2H-thiochromene-3-yl]carbonyl}tyrosine] yielded a melting point of 225 to 227 °C. In addition, the negative logarithm of the IC50 (pIC50) at human GPR34 was at least 6.00. In the case of `O=C(N[C@@H](Cc1ccc(OCc2ccccc2)cc1)C(=O)O)c1cc2cc(-c3ccc(Cl)cc3)ccc2[nH]c1=O` [Example C146, O-Benzyl-N-{[6-(4-chlorophenyl)-2-oxo-1,2-dihydroquinolin-3-yl]carbonyl}tyrosine], the melting point lay in the range of 298 to 299 °C. For the same molecule, at human GPR34, the negative logarithm of the IC50 (pIC50) is at least 6.00. For the molecule `Nc1c(C(=O)N[C@@H](Cc2ccc(OCc3ccccc3)cc2)C(=O)O)oc2cc(-c3ccc(Cl)cc3)ccc12` [Example C147, N-{[3-Amino-6-(4-chlorophenyl)-1-benzofuran-2-yl]carbonyl}-O-benzyltyrosine], the melting point was 250 °C (dec.). Besides, the pIC50 at human GPR34 was at least 6.00. For the molecule `O=C(N[C@@H](Cc1ccc(OCc2ccccc2)cc1)C(=O)O)c1cc2cc(-c3ccc(Cl)cc3)ccc2o1` [Example C148, O-Benzyl-N-{[5-(4-chlorophenyl)-1-benzofuran-2-yl]carbonyl}tyrosine], the melting point was 250 to 251 °C. In addition, the pIC50 at human GPR34 is at least 6.00.

`O=C(N[C@@H](Cc1ccc(OCc2cccc(F)c2)cc1)C(=O)O)c1cc2ccc(-c3ccc(Cl)cc3)cc2o1` [Example C153, N-{[6-(4-Chlorophenyl)-1-benzofuran-2-yl]carbonyl}-O-(3-fluorobenzyl)tyrosine] came in with a melting point of 162 to 163 °C. The pIC50 on human GPR34 is at least 6.00. On to `O=C(N[C@@H](Cc1ccc(OCc2ccccc2)cc1)C(=O)O)c1cc2ccc(-c3ccc(Cl)cc3)cc2[nH]1` [Example C163, O-Benzyl-N-{[6-(4-chlorophenyl)-1H-indol-2-yl]carbonyl}tyrosine], for which the melting point fell in the range of 202 to 204 °C. The pIC50 on human GPR34 was at least 6.00. In turn, `O=C(O)CN(Cc1ccc(OCc2ccccc2)cc1)C(=O)c1cn2cc(-c3ccc(Cl)cc3)ccc2n1` [Example E39, N-[4-(Benzyloxy)benzyl]-N-{[6-(4-chlorophenyl)imidazo[1,2-a]pyridin-2-yl]carbonyl}glycine] gave a melting point of 213 to 214 °C. Consider `O=C(N[C@@H](Cc1ccc(OCc2ccccc2)cc1)C(=O)O)c1cn2cc(-c3ccc(Cl)cc3Cl)ccc2n1` [Example E40, O-Benzyl-N-{[6-(2,4-dichlorophenyl)imidazo[1,2-a]pyridin-2-yl]carbonyl}tyrosine], for which the melting point lay within 237 to 239 °C. With `COc1ccc(/C=C/c2ccc3nc(C(=O)N[C@@H](Cc4ccc(OCc5ccccc5)cc4)C(=O)O)cn3c2)cc1` [Example E43, O-Benzyl-N-({6-[(E)-2-(4-methoxyphenyl)ethenyl]imidazo[1,2-a]pyridin-2-yl}carbonyl)tyrosine], the melting point is 262 to 263 °C. Consider `O=C(NC(Cc1ccc(OCc2ccccc2)cc1)C(=O)O)c1cn2cc(-c3ccc(OC(F)(F)F)cc3)ccc2n1` (stereo not drawn) [Example E44], for which the melting point lay within 270 to 271 °C. The same measure, in the same setting: the value for `COc1cc(F)c(-c2ccc3nc(C(=O)N[C@@H](Cc4ccc(OCc5ccccc5)cc4)C(=O)O)cn3c2)c(F)c1` [Example E46, O-Benzyl-N-{[6-(2,6-difluoro-4-methoxyphenyl)imidazo[1,2-a]pyridin-2-yl]carbonyl}tyrosine] was 219 °C; that for `O=C(N[C@@H](Cc1ccc(OCc2ccccc2)cc1)C(=O)O)c1ccc2nc(-c3ccc(Cl)cc3)c(Cl)n2c1` [Example E50, O-Benzyl-N-{[3-chloro-2-(4-chlorophenyl)imidazo[1,2-a]pyridin-6-yl]carbonyl}tyrosine] was 241 to 243 °C; that for `O=C(O)CN(Cc1ccc(OCc2ccccc2)cc1)C(=O)c1cn2ccc(-c3ccc(Cl)cc3)cc2n1` [Example E52, N-[4-(Benzyloxy)benzyl]-N-{[7-(4-chlorophenyl)imidazo[1,2-a]pyridin-2-yl]carbonyl}glycine] was 186 °C.

The molecule `O=C(O)CN(Cc1ccc(OCc2ccsc2)cc1)C(=O)c1cn2ccc(-c3ccc(Cl)cc3)cc2n1` [Example E53] registered a melting point of 187 °C. In the case of `Cc1c(-c2ccc(Cl)cc2)nc2ccc(C(=O)N[C@@H](Cc3ccc(OCc4ccccc4)cc3)C(=O)O)cn12` [Example E55, O-Benzyl-N-{[2-(4-chlorophenyl)-3-methylimidazo[1,2-a]pyridin-6-yl]carbonyl}tyrosine], the melting point was in the range of 244 to 245 °C. In the case of `O=C(N[C@@H](Cc1ccc(OCc2ccccc2)cc1)C(=O)O)c1cn2ccc(-c3ccc(Cl)cc3)cc2n1` [Example E56, O-Benzyl-N-{[7-(4-chlorophenyl)imidazo[1,2-a]pyridin-2-yl]carbonyl}-L-tyrosine], the melting point lay within 248 to 249 °C. In the case of `O=C(N[C@@H](Cc1ccc(OCc2ccccc2)cc1)C(=O)O)c1cn2ccc(C#Cc3ccccc3)cc2n1` [Example E58, O-Benzyl-N-{[7-(phenylethynyl)imidazo[1,2-a]pyridin-2-yl]carbonyl}tyrosine], the melting point was 243 °C (dec.). Molecule `Cc1cccc(COc2ccc(C[C@H](NC(=O)c3cn4ccc(-c5ccc(Cl)cc5)cc4n3)C(=O)O)cc2)c1` [Example E60, N-{[7-(4-Chlorophenyl)imidazo[1,2-a]pyridin-2-yl]carbonyl}-O-(3-methylbenzyl)tyrosine] displayed a melting point of 245 to 246 °C. The same measure, in the same setting: as for `COc1cccc(COc2ccc(C[C@H](NC(=O)c3cn4ccc(-c5ccc(Cl)cc5)cc4n3)C(=O)O)cc2)c1` [Example E61, N-{[7-(4-Chlorophenyl)imidazo[1,2-a]pyridin-2-yl]carbonyl)-O-(3-methoxybenzyl)tyrosine], the figure is 239 to 240 °C; as for `O=C(NC(Cc1ccc(OCc2ccc(F)cc2)cc1)C(=O)O)c1cn2ccc(C#Cc3ccccc3)cc2n1` (stereo not drawn) [Example E62], 243 °C (dec.); as for `O=C(N[C@@H](Cc1ccc(OCc2ccc(C(F)(F)F)cc2)cc1)C(=O)O)c1cn2ccc(-c3ccc(Cl)cc3)cc2n1` [Example E66, N-{[7-(4-Chlorophenyl)imidazo[1,2-a]pyridin-2-yl]carbonyl}-O-[4-(trifluoromethyl)benzyl]tyrosine], 263 °C.

The melting point is the temperature, or range, at which the solid turns liquid. Usually pIC50 stands for −log10 of the IC50, conventionally taken in molar units.
